How the values were obtained:
[1] = system: esterases in mouse plasma; assay: Conversion of ester prodrugs to Compound 1 by mouse plasma (HPLC); type: in vitro ADME
Procedure: FIG. 2. Chromatogram of Compound 2. Purified Compound 2 was analyzed by high-performance liquid chromatography using a Waters 2795 system equipped with a photodiode array detector. Separations were conducted using a Nova-Pak C18 column (3.9×150 mm, Waters) eluted isocratically with a mobile phase that consisted of 65% Solvent A (methanol containing 0.1% formic acid) and 35% Solvent B (5% acetonitrile and 95% water containing 0.1% formic acid) at a flow rate of 0.6 mL/min. Compound 2 was detected by its absorbance at the wavelength of 265 nm.
FIG. 3. Conversion of Compound 2 to Compound 1 by plasma enzymes. Purified Compound 2 was incubated with mouse plasma for 5 minutes at room temperature. The sample was then extracted and analyzed by high-performance liquid chromatography as described for FIG. 2.
Prodrugs are compounds that are converted to a biologically active metabolite through the action of enzymes in the body. […] When Compound 2 was incubated with plasma isolated from mouse blood at room temperature for 5 minutes and then analyzed by a similar HPLC process, the peak corresponding to Compound 2 was reduced by more than 95%, and new compounds that eluted with retention times consistent with the monoester of Compound 1, i.e. one of the acetyl esters had been removed, and Compound 1 itself, i.e. both of the acetyl esters had been removed (FIG. 3). […]

[2] = system: Murine JC mammary adenocarcinoma cells; assay: Cytotoxicity, MTS cell viability assay; type: cell-based; conditions: 72 hours
Text: FIG. 5. Inhibition of tumor cell proliferation by Compound 1 and Compound 2. Murine JC mammary adenocarcinoma cells were exposed to the indicated concentrations of either Compound 1 (▪) or Compound 2 (▴) for 72 hr. At the end of the exposure, the number of viable tumor cells was quantified using the MTS assay. Values represent the fraction of surviving cells compared with DMSO-(vehicle)-treated control cells.
To further assess the biological efficacies of the Compounds in intact cells, Compound 1 and Compound 2 were evaluated for cytotoxicity using a murine breast cancer cell line. These experiments followed methods that have been extensively used. The cells were treated with varying doses of the test Compound for 72 hours, and then cell viability was measured using CellTiter 96® AQueous Non-Radioactive Cell Proliferation Assay (MTS) available from Promega Corporation. Values represent the mean±std. dev. percentage of cells that survive at each of the indicated concentrations of Compound 1 or Compound 2. […] However, the extent of cell killing and the potency for cell killing were greater for Compound 2 than Compound 1.

[3] = system: mouse JC mammary adenocarcinoma tumors; assay: Antitumor activity, JC mammary adenocarcinoma tumors growing subcutaneously in Balb/c mice; type: in vivo; conditions: 50 mg/kg of Compound 2 daily for five days per week
Procedure: FIG. 6. Antitumor activity of Compound 2 alone and in combination with gemcitabine. Murine JC mammary adenocarcinoma cells were injected subcutaneously into Balb/c mice and tumors were allowed to grow to approximately 150 mm^3. The animals were then treated with vehicle alone (▪), 1 mg/kg of gemcitabine weekly (▴), 50 mg/kg of Compound 2 daily for five days per week (▾) or a combination of gemcitabine plus Compound 2 (♦). Tumors were measured twice per week. The values shown represent the average tumor volume+/−the std. dev. for each group (n=8).
The antitumor activity of a representative prodrug SK inhibitor was evaluated using a […] tumor model that uses the mouse JC mammary adenocarcimona cell line growing subcutaneously in immunocompetent Balb/c mice (Lee et al., Oncol Res 14: 49 (2003)). These cells express elevated levels of SK activity relative to non-transformed cells, as well as the multidrug resistance phenotype due to P-glycoprotein activity. Murine JC mammary adenocarcinoma cells were injected subcutaneously into Balb/c mice and tumors were allowed to grow to approximately 100 mm^3. The animals were then treated with vehicle alone (▪), 1 mg/kg of gemcitabine weekly (▴), 50 mg/kg of Compound 2 daily for five days per week (▾) or a combination of gemcitabine plus Compound 2 (♦). Tumors were measured twice per week. […]

SMILES: CC(=O)Oc1ccc(CCNC(=O)C23CC4CC(C2)CC(c2ccc(Cl)cc2)(C4)C3)cc1OC(C)=O [Compound 2, Acetic acid 2-acetoxy-5-(2-{[3-(4-chlorophenyl)-adamantane-1-carbonyl]-amino}ethyl)phenyl ester]
- reduction of the HPLC peak corresponding to Compound 2 ([1]; incubated with mouse plasma at room temperature for 5 minutes): more than 95%
- cleavage of the esters / conversion to Compound 1 by mouse plasma ([1]; mouse plasma, room temperature, 5 minutes, HPLC): rapidly convert Compound 2 into Compound 1
- extent of cell killing, Compound 2 compared with Compound 1 [2]: greater
- inhibition of tumor cell proliferation (cell viability) [2]: can inhibit tumor cell proliferation
- potency for cell killing, Compound 2 compared with Compound 1 [2]: greater
- tumor growth (tumor volume) [3]: significant reduction of tumor growth

Reference: patent US8685936B2, “Sphingosine kinase inhibitor prodrugs” (Apogee Biotechnology Corporation, priority 2009, dated 2014)
